In US7141394B2, “More stable analog of isopropyl thiogalactoside for induction of protein expression” (Iowa State University Research Foundation, Inc., priority 2003, dated 2006):
Entries after “also recorded” stand apart in the source; their conditions may differ.

Key:
[1] = test system: lac promoter; experiment: EGFP fluorescence reporter assay of induction of protein expression under the lac promoter; type: cell-based, E. coli; conditions: for EGFP fluorescence emission at 507 nm after excitation at 488 nm, normalized for the number of cells: induced at OD600 0.7, versus culture without inducer
From the text: To compare the ability of the C-glycoside to take the place of IPTG in the induction of protein expression, assays of promoter activity that rely on production of a fluorescent protein were pursued. Reporters for gene activity in bacteria that rely on green fluorescent protein (GFP) and its variants have become very popular as they have been validated by direct comparison to traditional reporter assays using either chloroamphenicol acetyltransferase or β-galactosidase. For bacterial studies, the enhanced green fluorescent protein (EGFP) is particularly useful as it is not toxic to E. coli like the wild type GFP itself and the protein folds and autocatalyzes formation of its fluorophore with a half-life of less than 45 minutes rather than hours. Therefore, the gene for EGFP (BD Biosciences) was ligated into a pET vector plasmid using NcoI and EcoRI in order to have control of EGFP protein expression with a lac promoter system and to have low background protein expression levels. This plasmid was transformed into E. coli BL21 DE(3) cells for protein expression studies. The cells were grown to an optical density of 0.7 (at 600 nm) and then protein production was induced with either IBCG or IPTG. The fluorescence emission at 507 nm after excitation at 488 nm, normalized for the number of cells, was plotted as a function of time (data not shown) as previously reported.

[2] = Stability of the inducer in solution on storage; type: physicochemical; conditions: ambient / room temperature; in water
From the text: This improved stability feature of IBCG also results in more accurate concentrations of the compound when used in experiments.
The latter property is especially valuable for small scale culture induction and for cases in which a more precise concentration of inducer is desirable.

[3] = E. coli BL21 DE(3) with pET-EGFP plasmid

SMILES | EGFP fluorescence emission at 507 nm after excitation at 488 nm, normalized for the number of cells [1, 3] | EGFP fluorescence of IBCG induced cells compared with IPTG induced cells ([1]; E. coli BL21 DE(3) with pET-EGFP plasmid, induction times of greater than four hours) | cell permeability ([1]; E. coli cells, inferred from induction of protein expression) | stability in solution [2]
CC(C)CC1OC(CO)C(O)C(O)C1O [IBCG, 1-isobutyl-,β-D-galactose] | considerably larger | even greater fluorescence than the IPTG induced cells | retains cell permeability | stable in solution at ambient temperature; also recorded: can be autoclaved in water and stored in room temperature
CC(C)S[C@@H]1O[C@H](CO)[C@H](O)[C@H](O)[C@H]1O [IPTG, isopropyl-β-D-thiogalactopyranoside, reference compound] | considerably larger |  |  | 
